Test results: US4740503A, “Novel 5-fluoro-2'-deoxyuridine derivatives and salts thereof, process for producing the same, and antitumor agents containing the same” (priority 1984, dated 1988)
“And” between values parts separate entries of the source, which are not always exact repeats. Equal values may be shown once.

Columns and labels:
Ehrlich carcinoma cells = assay: Antitumor effect in Ehrlich carcinoma-bearing mice (tumor weight ratio to control); format: in vivo, ddY strain mice; details: i.p. once daily for 6 days, tumor weight on day 12 vs saline control
Description: Eight ddY strain mice (male, 5 weeks old, weight: about 25 g) per group were used, and 5×10^6 Ehrlich carcinoma cells were inoculated subcutaneously into the inguinal region of the mice. The test compound dissolved or suspended in a physiological saline solution was intraperitoneally administered to the mice once daily for 6 days from the day after the inoculation. As the control compound, FudR was used. To the control group was administered only the physiological saline solution.

cells = details: FduMP per se; cited from earlier work
thymidylate synthetase = details: in cells, FduMP formed from FudR; cited from earlier work
[1] = in vivo; cited from earlier work
[2] = cited from earlier work
nucleoside phosphorylase = details: cited from earlier work
[3] = in vitro, compared with 5-Fu; cited from earlier work
[4] = Acute toxicity test (single intraperitoneal administration, LD50); details: mouse, in vivo, ip; single i.p. administration, male ddY mice, death judged on 14th day
Description: To ddY mice (male, 5 weeks old, 5 mice per group) was intraperitoneally administered the test compound dissolved or suspended in a physiological saline solution only one time. On the 14th day after the administration, the death of mouse was judged, and the LD50 value was calculated.

Molecule | Effect (T/C (%)) (Ehrlich carcinoma cells; 3 μmole/kg/day) | Effect (T/C (%)) (Ehrlich carcinoma cells; 10 μmole/kg/day) | Effect (T/C (%)) (Ehrlich carcinoma cells; 1 μmole/kg/day) | LD50 at 336 h [4] | further results
5-Fluoro-2'-deoxy-3'-O-palmitoyl-β-uridine-5'-[2-(4-dimethylaminopyridinio)ethyl]phosphate.hydrate [Test compound 4] | 22% | 19% |  |  | 
5-Fluoro-2'-deoxy-5'-O-hexanoyl-β-uridine-3'-(2-trimethylammonioethyl)phosphate.hydrate [Test compound 9] | 38% | 21% |  |  | 
5-Fluoro-2'-deoxy-5'-O-palmitoyl-β-uridine-3'-[2-(1-pyrazolyl)ethyl]phosphate.hydrate [Example 7] | 27% |  | 40% |  | 
5-Fluoro-2'-deoxy-5'-O-palmitoyl-β-uridine-3'-[2-(2-hydroxyethyldimethylammonio)ethyl]phosphate.hydrate [Test compound 11] | 17% |  | 38% |  | 
5-Fluoro-2'-deoxy-5'-O-palmitoyl-β-uridine-3'-[2-(2H-1,2,4-triazol-1-io)ethyl]phosphate.hydrate [Test compound 10] | 66% | 34% |  |  | 
5-Fluoro-2'-deoxy-5'-O-palmitoyl-β-uridine-3'-{2-[4-(4-methyl)morpholinio]ethyl}phosphate.hydrate [Test compound 12] | 10% |  | 24% |  | 
O=c1[nH]c(=O)n([C@H]2C[C@H](O)[C@@H](COP(=O)(O)O)O2)cc1F [FduMP, 5-fluoro-2'-deoxyuridine-5'-monophosphate] |  |  |  |  | uptake by cells (cells): not taken up by cells; thymidylate synthetase inhibition (thymidylate synthetase): inhibits thymidylate synthetase
O=c1[nH]c(=O)n([C@H]2C[C@H](O)[C@@H](CO)O2)cc1F [FudR, 5-fluoro-2'-deoxy-β-uridine] | 87% | 67% and 77% |  |  | excretion [1]: rapidly excreted in vivo; metabolism [1]: metabolized to α-fluoro-β-alanine through 5-Fu; persistency [1]: poor in persistency; clinical toxicity [2]: high toxicity; clinical efficacy ([2]; compared with 5-Fu): only equivalent in efficacy to 5-Fu; cleavage by nucleoside phosphorylase (nucleoside phosphorylase): easily cleaved by nucleoside phosphorylase; cytocidal activity [3]: stronger cytocidal activity than 5-fluorouracil; Effect (T/C (%)) (Ehrlich carcinoma cells; 30 μmole/kg/day): 42%
CCCCCCCCCCCCCCCCCC(=O)O[C@H]1C[C@H](n2cc(F)c(=O)[nH]c2=O)O[C@@H]1COP(=O)([O-])OCC[N+](C)(C)C [Test compound 2] |  |  |  | 188 mg/kg | 
CCCCCCCC/C=C\CCCCCCCC(=O)O[C@H]1C[C@H](n2cc(F)c(=O)[nH]c2=O)O[C@@H]1COP(=O)([O-])OCC[N+](C)(C)C [Test compound 3] |  |  |  | 200 mg/kg | 
CCCCCCCCCCCCCCCC(=O)OC[C@H]1O[C@@H](n2cc(F)c(=O)[nH]c2=O)C[C@@H]1OP(=O)([O-])OCC[N+](C)(C)C [Test compound 5] |  |  |  | > 200 mg/kg | 
CCCCCCCCCCCCCCCCCC(=O)OC[C@H]1O[C@@H](n2cc(F)c(=O)[nH]c2=O)C[C@@H]1OP(=O)([O-])OCC[N+](C)(C)C [Test compound 6] |  |  |  | 200 mg/kg | 
CCCCCCCCCCCC(=O)OC[C@H]1O[C@@H](n2cc(F)c(=O)[nH]c2=O)C[C@@H]1OP(=O)([O-])OCC[N+](C)(C)C [Test compound 7] |  |  |  | > 300 mg/kg | 
CCCCCCCCCCCCCCCC(=O)O[C@H]1C[C@H](n2cc(F)c(=O)[nH]c2=O)O[C@@H]1COP(=O)([O-])OCC[N+](C)(C)C [compound 1] | 47% | 19% |  | 208 mg/kg | Effect (T/C (%)) (Ehrlich carcinoma cells; 30 μmole/kg/day): 15%
CCCCCCCCC=CCCCCCCCC(=O)OC[C@H]1O[C@@H](n2cc(F)c(=O)[nH]c2=O)C[C@@H]1OP(=O)([O-])OCC[N+](C)(C)C [compound 8] | 28% |  | 50% | 300 mg/kg | 
CCCCCC(=O)OC[C@H]1O[C@@H](n2cc(F)c(=O)[nH]c2=O)C[C@@H]1OP(=O)([O-])OCC[N+](C)(C)C [compound 9] | 32% |  | 50% | 500 mg/kg | 
CCCCCCCCCCCCCCCC(=O)OC[C@H]1O[C@@H](n2cc(F)c(=O)[nH]c2=O)C[C@@H]1OP(=O)([O-])OCC[n+]1cnc[nH]1 [compound 10] | 36% | 18% | 42% |  | 
CCCCCCCCCCCCCCCC(=O)OC[C@H]1O[C@@H](n2cc(F)c(=O)[nH]c2=O)C[C@@H]1OP(=O)([O-])OCC[N+](C)(C)CCO [compound 11] | 44% | 22% | 41% |  | 
CCCCCCCCCCCCCCCC(=O)OC[C@H]1O[C@@H](n2cc(F)c(=O)[nH]c2=O)C[C@@H]1OP(=O)([O-])OCC[N+]1(C)CCOCC1 [compound 12] | 28% |  | 46% |  | 
